Measured values as given in patent US11530384B2, “Use of matrix cells for preparing a micro hair follicle” (L'OREAL, priority 2015, dated 2022).
“Also recorded” adds a separate entry of the source.

Test system: matrix cells
Test: Culture-amplification of hair matrix cells on a 3T3 feeder layer in the presence of Y27632
Format: cell-based, human
Settings: matrix cells cultured on mitomycin-blocked 3T3 feeder layer, Green-based medium, 10 μM of Y27632
Excerpt: Some authors have proposed culturing these cells in coculture with papilla fibroblasts. The drawback of this method is that the culture obtained is not homogeneous, the matrix cells are contaminated with the dermal fibroblasts from the papilla used in coculture (Reynolds A J, Lawrence […] Human hair follicle germinative epidermal cell culture. J Invest Dermatol. 1993 October; 101(4):634-8). Luo et al. have proposed a technique of microdissection followed by culture of the matrix cells on a plastic support (Luo et al: Methods for culturing hair follicle epithelial matrix cells; Reg. number: H1610; Nov. 5, 1996). However, this microdissection technique results in a very low yield of matrix cells. The applicant has isolated the matrix cells and developed a process for culturing these cells. […] keratinocytes until they reach confluence while forming regular clusters. The cells are amplified according to the technique of Rheinwald and Green (Cell, vol. 6, 331-344,1975) by culturing on a feeder support constituted of fibroblasts in a suitable medium known to those skilled in the art, in the presence of growth factors, in particular amino acids, serum, cholera toxin, insulin, triiodothyronine and pH buffer solution. […]

SMILES: C[C@@H](N)[C@H]1CC[C@H](C(=O)Nc2ccncc2)CC1 [Y27632]
- differentiation of matrix cells into keratinocytes positive for K85 K35 markers: differentiation thereof into keratinocytes that are positive for the K85 K35 markers; also recorded: differentiate into K85 K35 keratinocytes
- proliferation of matrix cells in culture: considerable proliferation; also recorded: proliferate rapidly
